Where two headings read alike, the source gives them in different places.
Tests used:
ZIKV strain R116265 = experiment: Plaque reduction inhibition assay, ZIKV R116265 in Vero E6 cells; type: cell-based; details: Zika virus, Vero C1008
Vero E6 cells [1] = test system: Vero E6 cells
[2] = target: T1, ZIKV envelope protein domain III (EDIII) protein (Zika virus, UniProt A0A024B7W1); type: binding; details: ELISA
T1 construct: E residues 298–409 fused with a C-terminal human Fc; made in house

ZIKV strain PAN2016 [3] = experiment: Plaque reduction inhibition assay, ZIKV PAN2016 in Vero E6 cells; type: cell-based; details: Zika virus, Vero C1008, Vero E6 cells
[4] = test system: ZIKV rhesus macaque strain MR 766; experiment: Plaque reduction inhibition assay, ZIKV MR 766 in Vero E6 cells; type: cell-based; details: Zika virus, Vero C1008, in Macaca mulatta; plaque reduction, Vero E6 cells; read-out: IC50 MR 766
in vitro [5] = details: rhesus monkey
ZIKV strain PRVABC59 [6] = experiment: Plaque reduction inhibition assay, ZIKV PRVABC59 in Vero E6 cells; type: cell-based; details: Zika virus, Vero C1008; plaque reduction, Vero E6 cells
ZIKV (PAN2016) = experiment: Time-of-addition experiment, ZIKV PAN2016 in Vero E6 cells; type: cell-based, Zika virus (ZIKV); details: for inhibition at 30 µM: Zika virus
ZIKV strain PAN2015 = experiment: Plaque reduction inhibition assay, ZIKV PAN2015 in Vero E6 cells; type: cell-based; details: Zika virus, Vero C1008
ZIKV strain R103451 = experiment: Plaque reduction inhibition assay, ZIKV R103451 in Vero E6 cells; type: cell-based; details: Zika virus, Vero C1008; plaque reduction, Vero E6 cells; read-out: IC50 R103451
in vitro [7] = details: African green monkey
DENV-1-V1792 = experiment: Plaque reduction inhibition assay, DENV-1 in LLC-MK2 cells; type: cell-based; details: Dengue virus, DENV1
DENV-3-V1043 = experiment: Plaque reduction inhibition assay, DENV-3 in LLC-MK2 cells; type: cell-based; details: Dengue virus, DENV3
[8] = target: ZIKV full-length E protein (Zika virus, UniProt A0A024B7W1); type: binding; details: ELISA
Chain of ZIKV full-length E protein (A0A024B7W1 291-794): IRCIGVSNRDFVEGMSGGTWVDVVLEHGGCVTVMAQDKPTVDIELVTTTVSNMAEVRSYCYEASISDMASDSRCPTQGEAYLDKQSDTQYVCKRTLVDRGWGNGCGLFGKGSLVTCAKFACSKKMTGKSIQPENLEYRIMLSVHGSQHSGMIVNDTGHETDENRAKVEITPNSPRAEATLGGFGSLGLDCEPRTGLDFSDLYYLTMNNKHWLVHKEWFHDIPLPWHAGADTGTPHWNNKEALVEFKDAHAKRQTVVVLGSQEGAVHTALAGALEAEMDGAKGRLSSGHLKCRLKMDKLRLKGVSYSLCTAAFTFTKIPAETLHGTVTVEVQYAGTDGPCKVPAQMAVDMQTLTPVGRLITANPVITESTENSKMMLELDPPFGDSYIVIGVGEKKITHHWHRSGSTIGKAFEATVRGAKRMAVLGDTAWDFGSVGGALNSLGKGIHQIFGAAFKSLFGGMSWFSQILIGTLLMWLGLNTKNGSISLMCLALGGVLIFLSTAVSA

ZIKV strain FLR [9] = type: cell-based, Zika virus (ZIKV); details: ZIKV FLR
DENV-4-PR 06-65-740 = experiment: Plaque reduction inhibition assay, DENV-4 in LLC-MK2 cells; type: cell-based; details: Dengue virus, DENV4
ZIKV strain PRVABC59 [10] = type: cell-based, Zika virus (ZIKV)
[11] = test system: ZIKV mosquito strain MEX 2–81; experiment: Plaque reduction inhibition assay, ZIKV MEX 2–81 in Vero E6 cells; type: cell-based; details: Zika virus, Vero C1008; plaque reduction, Vero E6 cells; read-out: IC50 MEX 2–81
in vitro [12] = details: African green monkey; remark: listed apart in the source
ZIKV strain IbH 30656 = experiment: Plaque reduction inhibition assay, ZIKV IbH 30656 in Vero E6 cells; type: cell-based; details: Zika virus, Vero C1008; plaque reduction, Vero E6 cells; read-out: IC50 IbH 30656
ZIKV strain FLR [13] = experiment: Plaque reduction inhibition assay, ZIKV FLR in Vero E6 cells; type: cell-based; details: Zika virus, Vero C1008; plaque reduction, Vero E6 cells; read-out: IC50 FLR
DENV-2-V594 = experiment: Plaque reduction inhibition assay, DENV-2 in LLC-MK2 cells; type: cell-based; details: Dengue virus, DENV2
Vero E6 cells [14] = experiment: Combinatorial cytotoxicity of gossypol with other natural products, CCK8; details: Vero E6, (CC50 alone)/(CC50 in the mixture)—1
ZIKV strain PLCal_ZV = experiment: Plaque reduction inhibition assay, ZIKV PLCal_ZV in Vero E6 cells; type: cell-based; details: Zika virus, Vero C1008; plaque reduction, Vero E6 cells; read-out: IC50 PLCal_ZV
ZIKV strain PAN2016 [15] = type: cell-based, Zika virus (ZIKV)

T1 sequence (A0A024B7W1 588-699): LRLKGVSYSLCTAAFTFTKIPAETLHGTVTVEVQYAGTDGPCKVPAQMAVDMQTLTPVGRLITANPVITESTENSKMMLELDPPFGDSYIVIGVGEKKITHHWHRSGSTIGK

COc1cc(/C=C/C(=O)CC(=O)/C=C/c2ccc(O)c(OC)c2)ccc1O [Curcumin, curcumin]
IC50 (ZIKV strain R116265): 14 ± 0.15 µM | cytotoxicity in Vero E6 cells observed under a microscope (Vero E6 cells [1]): no obvious cytotoxicity | binding to ZIKV EDIII protein (in words) [2]: much lower binding affinity | IC90 (ZIKV strain PAN2016 [3]; 90% plaque reduction, read-out: IC90 against ZIKV PAN2016 strain): ~47.7 µM | IC50 (ZIKV strain PAN2016 [3]; plaque reduction, read-out: IC50 PAN2016): 13.7 ± 0.72 µM | IC50 [4]: 11.4 ± 0.29 µM | CC50 at 3 days (in vitro [5]): 59.4 ± 1.18 µM | IC50 (ZIKV strain PRVABC59 [6]): 12.8 ± 0.35 µM | inhibition at 30 µM (ZIKV (PAN2016); Vero C1008, 1 h, read-out: inhibition of ZIKV infection, step c: cotreatment at 4 °C (attachment)): 75 to 100% | inhibition at 30 µM (ZIKV (PAN2016); Vero C1008, 1 h, read-out: inhibition of ZIKV infection, step d: cotreatment at 37 °C): 75 to 100% | inhibition at 30 µM (ZIKV (PAN2016); Vero C1008, read-out: inhibition of ZIKV infection, step a: pretreatment of ZIKV): 75 to 100% | inhibition of ZIKV infection, step e: penetration (membrane fusion) (ZIKV (PAN2016); cells with ZIKV 4 °C 1 h, then natural product 37 °C 1 h, gossypol 15 µM, curcumin 30 µM, digitonin 7.5 µM, conessine 30 µM): low to no impact | inhibition of ZIKV infection, step f: postentry stage (ZIKV (PAN2016); cells with ZIKV 37 °C 1 h, then natural product 37 °C 1 h, gossypol 15 µM, curcumin 30 µM, digitonin 7.5 µM, conessine 30 µM): low to no impact | inhibition of ZIKV infection, step b: pretreatment of cells (ZIKV (PAN2016); cells with natural product 37 °C 1 h before ZIKV, gossypol 15 µM, curcumin 30 µM, digitonin 7.5 µM, conessine 30 µM): low to no impact | IC50 (ZIKV strain PAN2015): 13.7 ± 0.37 µM | IC50 (ZIKV strain R103451): 11.2 ± 0.37 µM | CC50 at 3 days (in vitro [7]): 53.1 ± 1.83 µM | IC50 (DENV-1-V1792): 9.37 ± 0.47 µM | IC50 (DENV-3-V1043): 2.09 ± 0.12 µM | binding to ZIKV full-length E protein (in words) [8]: much lower binding affinity | Fold of Enhancement (natural product with gossypol) (ZIKV strain FLR [9]; (IC50 alone)/(IC50 in the mixture)—1): 2.84 | CI (combination index) of gossypol with the named natural product (ZIKV strain FLR [9]; CI < 1 synergy): 0.49 | IC50 (ZIKV strain FLR [9]; Zika virus, Vero C1008, Vero E6, natural product without combination, read-out: IC50 Alone): 17.05 ± 0.08 µM | IC50 (DENV-4-PR 06-65-740): 4.83 ± 0.24 µM | Fold of Enhancement (natural product with gossypol) (ZIKV strain PRVABC59 [10]; ZIKV PRVABC59, (IC50 alone)/(IC50 in the mixture)—1): 5.46 | CI (combination index) of gossypol with the named natural product (ZIKV strain PRVABC59 [10]; ZIKV PRVABC59, CI < 1 synergy): 0.30 | IC50 (ZIKV strain PRVABC59 [10]; Zika virus, Vero C1008, ZIKV PRVABC59, Vero E6, natural product without combination, read-out: IC50 Alone): 12.46 ± 0.05 µM | IC50 [11]: 5.62 ± 0.52 µM | CC50 at 3 days (in vitro [12]): 52.86 ± 0.52 µM | IC50 (ZIKV strain IbH 30656): 13.6 ± 0.31 µM | IC50 (ZIKV strain FLR [13]): 16.6 ± 0.34 µM | IC50 (DENV-2-V594): 3.07 ± 0.07 µM | Fold of Enhancement of cytotoxicity (natural product with gossypol) (Vero E6 cells [14]): 0.28 | Fold of Enhancement of cytotoxicity (natural product with gossypol) (Vero E6 cells [14]; listed as curcumin): not enhanced | IC50 (ZIKV strain PLCal_ZV): 10.8 ± 0.73 µM | Fold of Enhancement (natural product with gossypol) (ZIKV strain PAN2016 [15]; ZIKV PAN2016, (IC50 alone)/(IC50 in the mixture)—1): 2.60 | CI (combination index) of gossypol with the named natural product (ZIKV strain PAN2016 [15]; ZIKV PAN2016, CI < 1 synergy): 0.52 | IC50 (ZIKV strain PAN2016 [15]; Zika virus, Vero C1008, ZIKV PAN2016, Vero E6, natural product without combination, read-out: IC50 Alone): 13.2 ± 0.81 µM

Reference: publication PMC6893700 (Viruses, 2019)
